Each structure is given as a SMILES string.

Series [1] has as its target BRD4 BD1 (Homo sapiens (Human), UniProt O60885). Nature of the series: NanoBRET bromodomain assay, NanoLuc-BRD4-BD1 fusion in HEK293 cells. It is filed as cell-based. Particulars: top concentration 10 μM.
Series [2] is described as follows: Sprague-Dawley rat pharmacokinetics, IV and PO cassette dosing. Type of series: in vivo. Particulars: Method 1; for IV T1/2: IV 1 mg/kg; for PO F: PO 5 mg/kg. On the procedure: Compounds were formulated in 5% DMSO, 40% PEG-400, 55% Milli-Q water at a concentration of 0.2 mg/mL for IV and at 0.5 mg/mL for PO. Two male Sprague-Dawley rats per arm were dosed with up to 5 compounds in cassette mode, which each compound being dosed at 1 mg/kg IV and 5 mg/kg PO. Blood was sampled at various timepoints and plasma isolated. 50 μL of plasma with 5 μL of blank Sprague-Dawley rat plasma were added to 200 μL of acetonitrile containing IS mixture. The samples were vortexed for 30 s. After centrifugation at 4 degrees Celsius, 3900 rpm for 15 min, the supernatant was diluted 3 times with water. 20 μL of diluted supernatant was injected into the LC/MS/MS system for quantitative analysis and concentration of analyte determined by comparison with matrix matched standard curve. WinNonlin (Phoenix™, version 8.3) or other similar software may be used for pharmacokinetic calculations.

The target of series [3] is BRD4 BD2 (Homo sapiens (Human), UniProt O60885). Nature of the series: NanoBRET bromodomain assay, NanoLuc-BRD4-BD2 fusion in HEK293 cells.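 On all read-outs here: tracer displacement BRET read in transfected cells after 2 h compound exposure at 37 °C, signal in milliBRET units corrected against no-tracer background wells.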 Particulars: for IC50: BRD4 BD2 (IC50), NanoBRET, HEK293 cells, top concentration 10 μM; for Fold selectivity: IC50 for BRD4 BD1 divided by IC50 for BRD4 BD2, qualitative if an IC50 is at the upper limit.
A short description of series [4]: Intrinsic clearance in liver microsomes, rat. It is filed as in vitro ADME. The following applies: rat, liver microsomes, pH 7.4, rat liver microsomes, Method 1; read-out: Half-Life (T1/2) (min), Rat. On the procedure:
From stock solution of compound on 10 mM DMSO, a working solution of 0.1 mM is prepared by diluting the compound in DMSO. 6.25 μL of a 20 mg/mL solution of microsomes in PBS pH 7.4 buffer is added to 216.25 μL PBS pH 7.4 buffer (final microsome concentration—0.5 mg/mL). 25 μL of 10 mM solution of NADPH in PBS pH 7.4 buffer is added to the incubations (final NADPH concentration—1 mM). The mixture is pre-warmed to 37° C. for 10 minutes. 2.5 μL of test compound working solution is added (final compound concentration—1 μM with 1% DMSO). Aliquots of 30 μL are taken from the reaction solution at 0.5, 5, 15, 30 and 60 minutes. The reaction was stopped by the addition of 5 volumes of cold acetonitrile with IS (100 nM alprazolam, 200 nM caffeine and 100 nM tolbutamide). Samples were centrifuged at 3, 220 g for 40 minutes. Aliquots of 100 μL of the supernatant are mixed with 100 μL of ultra-pure H2O and used for LC-MS/MS analysis. The percent compound remaining at each time point is calculated with respect to that of the 0.5 min sample. The data are analysed to calculate half-life. Control experiments are run without NADPH and blank samples are prepared using DMSO without the test compound.
A 50 mM stock solution (in DMSO) is prepared for the compound. From the stock solution, a working solution of 0.5 mM is prepared by diluting the compound in DMSO. This concentration of working solution is prepared considering a final concentration of 1 uM with 0.1% DMSO. The compound (1 μL of working solution) is spiked in PBS with pH 7.4 ([…]) at a concentration of 1 μM. Subsequently, 110 μL of 10 mM NADPH is added (as a co-factor). The sample is incubated at 37° C. for 15 min. Following this, pre-warmed liver microsomes (27.5 μL; final protein conc. 0.5 mg/mL) are added. The samples are then incubated at 37° C. Aliquots of samples are withdrawn at 0, 5, 15, 30, 45 and 60 min. The reaction is stopped by using chilled acetonitrile containing internal standard. The samples are centrifuged, and the supernatants analysed by LC-MS/MS. The percent compound remaining at each time point is calculated with respect to that of the 0 min sample. The data are then analysed to calculate half-life and intrinsic clearance (CLint). Control experiments are run without NADPH and blank samples are prepared using DMSO without the test compound.

`CCNC(=O)c1cc(OC(C)c2ccc(Cl)cc2)c(C(=O)NC)[nH]1` (single isomer, unassigned) [Example 18, 3-(1-(4-chlorophenyl)ethoxy)-N^5-ethyl-N^2-methyl-1H-pyrrole-2,5-dicarboxamide] gave an IC50 in series [1] of at least 10 µM. In addition, in series [2], the “IV T1/2” value was 1.1 h and the “PO F” value is given as 30%. Besides, in series [3], the IC50 is under 0.05 µM and the Fold selectivity result is “XXX (Fold >200)”.

For the compound `CCNC(=O)c1cc(OC(C)c2ccccc2)c(C(=O)NC)[nH]1` (racemic) [Example 95, N^5-ethyl-N^2-methyl-3-(1-phenylethoxy)-1H-pyrrole-2,5-dicarboxamide], the values for the IC50 in series [1] and in series [3] were at least 10 µM and 0.2 to 1 µM, respectively. In addition, in series [4], the half-life at 1 μM is over 60 min. Moreover, the Fold selectivity entry in series [3] is “X (Fold >2 and ≤50)”.

In series [1], `CCNC(=O)c1cc(OC(C)c2ccccc2F)c(C(=O)NC)[nH]1` (single isomer, unassigned) [Example 20, N^5-ethyl-3-(1-(2-fluorophenyl)ethoxy)-N^2-methyl-1H-pyrrole-2,5-dicarboxamide] returned an IC50 of at least 10 µM. Moreover, in series [2], the “IV T1/2” value was 0.4 h and the “PO F” value was 46%. In addition, in series [3], the IC50 lay in the range of 0.05 to 0.2 µM; the Fold selectivity entry was “XX (Fold >50 and ≤200)”.

Compound `CCNC(=O)c1cc(OC(C)c2ccc(F)c(F)c2)c(C(=O)NC)[nH]1` (racemic) [Example 12, 3-(1-(3,4-difluorophenyl)ethoxy)-N5-ethyl-N2-methyl-1H-pyrrole-2,5-dicarboxamide] came in with an IC50 in series [1] of at least 10 µM. Further, in series [3], the IC50 fell in the range of 0.2 to 1 µM; the Fold selectivity entry was “X (Fold >2 and ≤50)”.

`CCNC(=O)c1cc(OC(C)c2ccc(Cl)cc2)c(C(=O)NC)[nH]1` (single isomer, unassigned) [Example 19, 3-(1-(4-chlorophenyl)ethoxy)-N^5-ethyl-N^2-methyl-1H-pyrrole-2,5-dicarboxamide] showed a half-inhibitory concentration (IC50) in series [1] of at least 10 µM. Moreover, in series [3], the IC50 is over 10 µM; the Fold selectivity entry is “— (Fold ≥0 and ≤2)”.

In series [1], `CNC(=O)c1[nH]c(-c2ncc(C)[nH]2)cc1O[C@@H](C)c1ccccc1` [23 (2)*] yielded an IC50 of at least 10 µM. Further, in series [3] (10 uM, (2) = second batch), the “BRD4 BD2 % Activity Remaining @ 10 uM” value is listed as 61%. In series [3], the IC50 is over 10 µM; the Fold selectivity result was “— (Fold ≥0 and ≤2)”.

Regarding `CNC(=O)c1[nH]c(NC(C)=O)cc1O[C@@H](C)c1ccccc1F` [Example 128, (S)-5-acetamido-3-(1-(2-fluorophenyl)ethoxy)-N-methyl-1H-pyrrole-2-carboxamide], the results for the IC50 in series [1] and in series [3] were at least 10 µM and 0.05 to 0.2 µM, respectively. For the same compound, the Fold selectivity result in series [3] is “XX (Fold >50 and ≤200)”.

In the case of `CNC(=O)c1[nH]c(-c2cc(C)nn2C)cc1O[C@H](C)c1ccccc1` [Example 82, (R)-5-(1,3-dimethyl-1H-pyrazol-5-yl)-N-methyl-3-(1-phenylethoxy)-1H-pyrrole-2-carboxamide], the IC50 in series [1] is at least 10 µM; in series [3], over 10 µM. Moreover, the Fold selectivity result in series [3] was “— (Fold ≥0 and ≤2)”.

As for `CNC(=O)c1[nH]c(-c2cnn(C(F)(F)F)c2)cc1O[C@@H](C)c1ccccc1` [Example 83, (S)-N-methyl-3-(1-phenylethoxy)-5-(1-(trifluoromethyl)-1H-pyrazol-4-yl)-1H-pyrrole-2-carboxamide], in series [1], the IC50 is at least 10 µM. For the same compound, in series [3], the IC50 is under 0.05 µM and the Fold selectivity result was “XXX (Fold >200)”.

The compound `CCNC(=O)c1cc(OC(C)c2ccc(Cl)cc2F)c(C(=O)NC)[nH]1` (single isomer, unassigned) [Example 42, 3-(1-(4-chloro-2-fluorophenyl)ethoxy)-N^5-ethyl-N^2-methyl-1H-pyrrole-2,5-dicarboxamide] had an IC50 in series [1] of at least 10 µM. Besides, in series [3], the IC50 was over 10 µM; the Fold selectivity result was “— (Fold ≥0 and ≤2)”.

In turn, `CNC(=O)c1[nH]c(C(=O)NCC(F)(F)F)cc1O[C@@H](C)c1ccccc1F` [Example 57, (S)-3-(1-(2-fluorophenyl)ethoxy)-N^2-methyl-N^5-(2,2,2-trifluoroethyl)-1H-pyrrole-2,5-dicarboxamide] showed an IC50 in series [1] of at least 10 µM. Also, in series [3], the 50% inhibitory concentration (IC50) fell in the range of 0.2 to 1 µM; the Fold selectivity result is “X (Fold >2 and ≤50)”.

`CCNC(=O)c1cc(OC(C)c2ccccc2C(F)(F)F)c(C(=O)NC)[nH]1` (racemic) [Example 2, N^5-ethyl-N^2-methyl-3-(1-(2-(trifluoromethyl)phenyl)ethoxy)-1H-pyrrole-2,5-dicarboxamide]: the IC50 was at least 10 µM in series [1] and 0.05 to 0.2 µM in series [3]. Also, the Fold selectivity entry in series [3] was “XX (Fold >50 and ≤200)”.

The compound `CCNC(=O)c1cc(OC(c2ccccc2)C2CC2)c(C(=O)NC)[nH]1` (racemic) [Example 63, 3-(cyclopropyl(phenyl)methoxy)-N^5-ethyl-N^2-methyl-1H-pyrrole-2,5-dicarboxamide] showed an IC50 in series [1] of at least 10 µM. Also, in series [3], the IC50 was over 10 µM; the Fold selectivity entry is “— (Fold ≥0 and ≤2)”.

In turn, `CCNC(=O)c1cc(OC(C)c2cccc(Cl)c2)c(C(=O)NC)[nH]1` (racemic) [Example 3, 3-(1-(3-chlorophenyl)ethoxy)-N^5-ethyl-N^2-methyl-1H-pyrrole-2,5-dicarboxamide] yielded an IC50 in series [1] of at least 10 µM. Further, in series [3], the IC50 lay within 0.05 to 0.2 µM; the Fold selectivity entry was “XX (Fold >50 and ≤200)”.

On to `CCNC(=O)c1cc(OC(C)c2ccc(Br)cc2)c(C(=O)NC)[nH]1` (single isomer, unassigned) [Example 50, 3-(1-(4-bromophenyl)ethoxy)-N^5-ethyl-N^2-methyl-1H-pyrrole-2,5-dicarboxamide], for which, in series [1], the half-maximal inhibitory concentration (IC50) is at least 10 µM. In series [3], the IC50 was over 10 µM; the Fold selectivity result was “— (Fold ≥0 and ≤2)”.

As for `CCNC(=O)c1cc(OC(C)c2ccccc2Cl)c(C(=O)NC)[nH]1` (racemic) [Example 6, 3-(1-(2-chlorophenyl)ethoxy)-N^5-ethyl-N^2-methyl-1H-pyrrole-2,5-dicarboxamide], the IC50 in series [1] is at least 10 µM; in series [3], 0.2 to 1 µM. Besides, in series [3], the Fold selectivity entry is “X (Fold >2 and ≤50)”.

In the case of `CCNC(=O)c1cc(OC(C)c2ccc3c(c2)COC3)c(C(=O)NC)[nH]1` (racemic) [Example 15, 3-(1-(1,3-dihydroisobenzofuran-5-yl)ethoxy)-M-ethyl-N^2-methyl-1H-pyrrole-2,5-dicarboxamide], the concentration for half-maximal inhibition (IC50) is at least 10 µM in series [1] and 0.2 to 1 µM in series [3]. In series [3], the Fold selectivity result was “X (Fold >2 and ≤50)”.

For `CCNC(=O)c1cc(OC(C)c2ccc(C(F)(F)F)cc2)c(C(=O)NC)[nH]1` (racemic) [Example 1, N^5-ethyl-N^2-methyl-3-(1-(4-(trifluoromethyl)phenyl)ethoxy)-1H-pyrrole-2,5-dicarboxamide], the IC50 was at least 10 µM in series [1] and 0.2 to 1 µM in series [3]. Moreover, the Fold selectivity result in series [3] is “X (Fold >2 and ≤50)”.

For the origin of these results see patent US20250263370A1 (Tay Therapeutics Limited, priority 2022, published 2025).
